According to patent US7166705B2 (Schering Corporation, priority 1999, dated 2007):

Legend:
[1] = tested on: untransfected HEK-293 cells; assay: [3H]histamine binding to membranes from untransfected HEK-293 cells
Experimental: (§1) Membrane preparation: HEK-293 cells transfected with SP9144 as described above were harvested by incubating in 5 mM EDTA/phosphate-buffered saline followed by repeated pipetting. The cells were centrifuged 5 min at 1000×g. The EDTA/PBS was decanted and an equal volume of ice-cold 50 mM Tris-HCl, pH 7.5, was added and cells were broken up with a Polytron (PT10 tip, setting 5, 30 sec). Nuclei and unbroken cells were sedimented at 1000×g for 10 min and then the supernatant was centrifuged at 50,000×g for 10 min. The supernatant was decanted, the pellet was resuspended by Polytron, a sample was taken for protein assay (bicinchoninic acid, Pierce), and the tissue was again centrifuged at 50,000×g. Pellets were stored frozen at −20° C.
(§2) Samples were filtered on GF/B filters and washed thrice with 2 ml of cold Tris buffer. Filters were dried in a microwave oven, impregnated with Meltilex wax scintillant, and counted at 45% efficiency. […] Curves were fit to the data with Prism (GraphPad Software) nonlinear least-squares curve-fitting program and Ki values were derived from IC50 values according to Cheng and Prusoff (Cheng, Y. C., and Prusoff, W. H. (1973) Relationship between the inhibition constant (Ki) and the concentration of inhibitor which causes 50 per cent inhibition (IC50) of an enzymatic reaction. Biochem. Pharmacol. 22, 3099–3108).

SP9144 [2] = molecular target: T1, SP9144 (Homo sapiens, UniProt Q9H3N8); assay: [3H]histamine binding assay (saturation and competition), membranes of HEK-293 cells transfected with SP9144; details: for rank order of potency for blocking [3H]-histamine binding: competition with 18 nM [3H]histamine, 70 μg membrane protein; for block of [3H]-histamine binding: at concentrations of 10 μM
T1 construct: expressed in transfected cells; host or cells: HEK-293-EBNA / HEK-293 cells, transient transfection with pCR3.1-SP9144
T1 sequence (Q9H3N8 whole entry): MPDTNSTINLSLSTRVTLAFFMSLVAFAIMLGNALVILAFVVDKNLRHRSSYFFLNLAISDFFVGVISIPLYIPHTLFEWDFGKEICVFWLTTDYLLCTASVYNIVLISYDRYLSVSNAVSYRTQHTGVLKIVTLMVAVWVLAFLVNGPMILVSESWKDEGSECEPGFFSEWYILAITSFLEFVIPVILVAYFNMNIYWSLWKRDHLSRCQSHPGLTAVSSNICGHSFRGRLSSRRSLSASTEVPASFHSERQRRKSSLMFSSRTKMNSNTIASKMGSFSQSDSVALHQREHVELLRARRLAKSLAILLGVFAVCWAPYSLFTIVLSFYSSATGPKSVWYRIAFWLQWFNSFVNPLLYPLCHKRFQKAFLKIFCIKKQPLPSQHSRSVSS
Experimental: as §1, §2

SP9144 [3] = molecular target: T1, SP9144; assay: FLIPR intracellular Ca2+ assay, HEK-293-EBNA cells transfected with pCR3.1-SP9144; type: cell-based; details: for rank order of potency for activation of SP9144: transfected HEK-293-EBNA cells; for activation of SP9144 (change in intracellular Ca++, Fluo3 fluorescence): HEK-293-EBNA cells transfected with pCR3.1-SP9144, drugs 1×10^−4 M to 1×10^−9 M
Experimental: (§3) 24 hours after transfection, cells were harvested and plated at 25,000 cells/well in clear bottom, black walled 96 well plates precoated with poly-D-lysine (Beckton-Dickenson) and cultured overnight in DMEM/10% FBS. For the assay, growth media was removed and replaced with 50 μl/well dye loading medium containing DMEM, 10% FBS, 20 mM HEPES pH 7.4, 2.5 mM probenecid (Sigma), […] Fluo3-AM (Sigma) (dissolved in 10% pluronic acid in DMSO). After 1 hr. at 37° C., the cell plates were washed 4 times with 250 μl Hanks Balanced Salt Solution (HBSS) lacking phenol red and containing 20 mM HEPES, 2.5 mM probenecid, and 0.1% BSA (wash buffer). A final volume of 100 μl/well of wash buffer was added to the plates, and the plates were placed into a Fluorescent Imaging Plate Reader (FLIPR, Molecular Devices) equilibrated to 37° C. […] Fluorescence was monitored once per second for 1 minute, and every 6 seconds for 2 minutes thereafter. After a 10 sec baseline measurement was established, drugs at 3× final concentration (1×10^−4 M to 1×10^−9 M) were added in a volume of 50 μl while the fluorescence continued to be monitored. Values extracted for data analysis represented the maximal fluorescence value minus the minimal fluorescence value detected following the drug addition. Drug stock solutions were initially dissolved in water (or DMSO) and diluted to 3× final concentration using wash buffer.

mock transfected cells = tested on: mock transfected cells
Experimental: as §3

SMILES	rank order of potency for blocking [3H]-histamine binding (SP9144 [2])	rank order of potency for activation of SP9144 (SP9144 [3]; FLIPR Ca++ assay)	activation of SP9144 (change in intracellular Ca++, Fluo3 fluorescence) (SP9144 [3])	further results
NCCc1c[nH]cn1 [[^3H]-Histamine]	–	–	–	specific binding of [3H]-histamine to membranes [1]: not to membranes from untransfected HEK-293 cells; specific binding of [3H]-histamine to membranes (SP9144 [2]; membranes from HEK-293 cells transfected with SP9144 DNA): bound specifically
CNC(=S)NCCCCc1cnc[nH]1 [buramimide]	imetit>clobenpropit>histamine>impromidine>Na-methylhistamine>burimamide>(R)-a-methylhistamine>thioperimide>>(S)-a-methylhistamine	clobenpropit>imetit>impromidine>buramimide	able to activate SP9144, albeit with reduced efficacy	–
CN(C)CCC(c1ccc(Cl)cc1)c1ccccn1 (centres unmarked) [chlorphenirimine]	–	–	completely inactive	block of [3H]-histamine binding (SP9144 [2]): not able to block
S=C(NC1CCCCC1)N1CCC(c2cnc[nH]2)CC1 [thioperimide]	imetit>clobenpropit>histamine>impromidine>Na-methylhistamine>burimamide>(R)-a-methylhistamine>thioperimide>>(S)-a-methylhistamine	–	no activation of SP9144	block of the activation of SP9144 by (R)α-methylhistamine (SP9144 [3]; FLIPR Ca++ assay, antagonist mode): could be blocked in a dose dependent manner
Cc1nc[nH]c1CSCCN=C(N)NCCCc1cnc[nH]1 [impromidine]	imetit>clobenpropit>histamine>impromidine>Na-methylhistamine>burimamide>(R)-a-methylhistamine>thioperimide>>(S)-a-methylhistamine	clobenpropit>imetit>impromidine>buramimide	able to activate SP9144, albeit with reduced efficacy	–
CNC[C@H](O)c1ccc(O)c(O)c1 [epinephrine]	–	–	not by other biogenic amines	–
NCCc1c[nH]c2ccc(O)cc12 [serotonin]	–	–	not by other biogenic amines	–
C[C@@H](N)Cc1c[nH]cn1 [(R) α-methylhistamine]	imetit>clobenpropit>histamine>impromidine>Na-methylhistamine>burimamide>(R)-a-methylhistamine>thioperimide>>(S)-a-methylhistamine	Histamine>Nα-methylhistamine>(R) α-methylhistamine>>(S)α-methylhistamine (inactive)	able to activate SP9144	–
CNCCc1c[nH]cn1 [Nα-methylhistamine]	imetit>clobenpropit>histamine>impromidine>Na-methylhistamine>burimamide>(R)-a-methylhistamine>thioperimide>>(S)-a-methylhistamine	Histamine>Nα-methylhistamine>(R) α-methylhistamine>>(S)α-methylhistamine (inactive)	able to activate SP9144	–
C[C@H](N)Cc1c[nH]cn1 [(S)α-methylhistamine]	imetit>clobenpropit>histamine>impromidine>Na-methylhistamine>burimamide>(R)-a-methylhistamine>thioperimide>>(S)-a-methylhistamine	Histamine>Nα-methylhistamine>(R) α-methylhistamine>>(S)α-methylhistamine (inactive)	inactive	–
NCCc1c[nH]cn1 [histamine]	imetit>clobenpropit>histamine>impromidine>Na-methylhistamine>burimamide>(R)-a-methylhistamine>thioperimide>>(S)-a-methylhistamine	Histamine>Nα-methylhistamine>(R) α-methylhistamine>>(S)α-methylhistamine (inactive)	specifically activated	activation by histamine in mock transfected cells (mock transfected cells): not observed
CN/C(=N/CCSCc1nc[nH]c1C)NC#N [cimetidine]	–	–	completely inactive	block of [3H]-histamine binding (SP9144 [2]): not able to block
NC[C@H](O)c1ccc(O)c(O)c1 [nor-epinephrine]	–	–	not by other biogenic amines	–
NCCc1ccc(O)c(O)c1 [dopamine]	–	–	not by other biogenic amines	–
N=C(N)SCCc1cnc[nH]1 [imetit]	imetit>clobenpropit>histamine>impromidine>Na-methylhistamine>burimamide>(R)-a-methylhistamine>thioperimide>>(S)-a-methylhistamine	clobenpropit>imetit>impromidine>buramimide	able to activate SP9144, albeit with reduced efficacy	–
NC(=NCc1ccc(Cl)cc1)SCCCc1cnc[nH]1 [clobenpropit]	imetit>clobenpropit>histamine>impromidine>Na-methylhistamine>burimamide>(R)-a-methylhistamine>thioperimide>>(S)-a-methylhistamine	clobenpropit>imetit>impromidine>buramimide	able to activate SP9144, albeit with reduced efficacy	–
